Residues, ends and D or L forms follow the SMILES beside them.
How the values were obtained:
[1] = target: T1, Galanin receptor type 3 (Homo sapiens, UniProt O60755)
T1 sequence (O60755 whole entry): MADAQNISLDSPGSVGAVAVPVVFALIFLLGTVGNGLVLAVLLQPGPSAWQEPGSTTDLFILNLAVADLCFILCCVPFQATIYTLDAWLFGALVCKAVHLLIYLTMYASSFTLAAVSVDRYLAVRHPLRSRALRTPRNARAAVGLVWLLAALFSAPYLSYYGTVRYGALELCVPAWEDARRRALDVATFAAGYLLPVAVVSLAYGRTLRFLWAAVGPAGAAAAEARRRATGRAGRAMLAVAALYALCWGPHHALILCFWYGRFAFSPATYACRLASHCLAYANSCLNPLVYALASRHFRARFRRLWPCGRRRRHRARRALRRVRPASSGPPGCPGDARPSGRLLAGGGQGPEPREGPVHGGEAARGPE

[2] = target: T2, Galanin receptor type 3 (Rattus norvegicus, UniProt O88626)
T2 sequence (O88626 whole entry): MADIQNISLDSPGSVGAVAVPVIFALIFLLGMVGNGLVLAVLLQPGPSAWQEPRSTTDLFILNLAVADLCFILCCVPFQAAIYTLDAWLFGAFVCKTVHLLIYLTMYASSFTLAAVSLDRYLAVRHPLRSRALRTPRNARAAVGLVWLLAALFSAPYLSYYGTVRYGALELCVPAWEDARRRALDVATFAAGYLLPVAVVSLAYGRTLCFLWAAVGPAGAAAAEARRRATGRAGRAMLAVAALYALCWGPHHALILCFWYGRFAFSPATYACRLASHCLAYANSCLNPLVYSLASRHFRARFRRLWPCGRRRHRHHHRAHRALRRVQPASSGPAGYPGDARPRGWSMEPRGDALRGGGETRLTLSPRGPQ

[3] = target: T3, Galanin receptor type 2 (Rattus norvegicus, UniProt O08726)
T3 sequence (O08726 whole entry): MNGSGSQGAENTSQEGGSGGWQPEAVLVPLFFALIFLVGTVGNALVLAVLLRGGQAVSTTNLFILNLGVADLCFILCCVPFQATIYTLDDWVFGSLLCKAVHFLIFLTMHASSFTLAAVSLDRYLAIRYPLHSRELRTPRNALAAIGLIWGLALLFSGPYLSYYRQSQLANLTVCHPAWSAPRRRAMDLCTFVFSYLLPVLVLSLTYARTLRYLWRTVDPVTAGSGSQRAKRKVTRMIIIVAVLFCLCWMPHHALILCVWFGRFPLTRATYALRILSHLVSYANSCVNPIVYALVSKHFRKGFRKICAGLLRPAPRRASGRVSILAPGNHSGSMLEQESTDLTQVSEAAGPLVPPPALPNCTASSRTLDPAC

Ki [1] | Ki [2] | Ki [3] | Compound
14.4 nM | 2.09 nM | – | CC(C)C[C@H](NC(=O)[C@H](CC(C)C)NC(=O)[C@H](Cc1ccc(O)cc1)NC(=O)CNC(=O)[C@H](C)NC(=O)[C@H](CO)NC(=O)[C@H](CC(N)=O)NC(=O)[C@H](CC(C)C)NC(=O)[C@@H](NC(=O)[C@H](Cc1c[nH]c2ccccc12)NC(=O)CN)[C@@H](C)O)C(=O)NCC(=O)N1CCC[C@H]1C(=O)N1CCC[C@H]1C(=O)N1CCC[C@H]1C(=O)NCC(=O)N[C@@H](Cc1ccccc1)C(=O)N[C@@H](CO)C(=O)N1CCC[C@H]1C(=O)N[C@@H](Cc1ccccc1)C(=O)N[C@@H](CCCN=C(N)N)C(N)=O
39.8 nM | 10.5 nM | 1 nM | COc1ccccc1N(CCOc1ccc(C)cc1)C(=O)CN1CCCCC1 [CAS_3043476]
8.13 nM | – | 0.56 nM | CC(C)C[C@H](NC(=O)[C@H](CC(C)C)NC(=O)[C@@H](Cc1c[nH]c2ccccc12)NC(=O)[C@H](Cc1ccccc1)NC(=O)[C@@H](Cc1c[nH]c2ccccc12)NC(=O)[C@H](CCC(N)=O)NC(=O)[C@H](CCC(N)=O)NC(=O)[C@@H]1CCCN1C(=O)[C@H](CCCCN)NC(=O)[C@@H]1CCCN1C(=O)[C@@H](CCCN=C(N)N)NC(=O)[C@@H]1CCCN1C(=O)CNC(=O)[C@H](CC(C)C)NC(=O)[C@H](CC(C)C)NC(=O)[C@H](Cc1ccc(O)cc1)NC(=O)CNC(=O)[C@H](C)NC(=O)[C@H](CO)NC(=O)[C@H](CC(N)=O)NC(=O)[C@H](CC(C)C)NC(=O)[C@@H](NC(=O)[C@H](Cc1c[nH]c2ccccc12)NC(=O)CN)[C@@H](C)O)C(N)=O [Gal(1-13)-Std I] (HELM PEPTIDE1{G.W.T.L.N.S.A.G.Y.L.L.G.P.[dR].P.K.P.Q.Q.[dW].F.[dW].L.L.[am]}$$$$V2.0)
– | 4.47 nM | – | CC(C)C[C@H](NC(=O)[C@H](CC(C)C)NC(=O)[C@@H](Cc1c[nH]c2ccccc12)NC(=O)[C@H](Cc1ccccc1)NC(=O)[C@@H](Cc1c[nH]c2ccccc12)NC(=O)[C@H](CCC(N)=O)NC(=O)[C@H](CCC(N)=O)NC(=O)[C@@H]1CCCN1C(=O)[C@H](CCCCN)NC(=O)[C@@H]1CCCN1C(=O)[C@@H](CCCNC(=N)N)NC(=O)[C@@H]1CCCN1C(=O)CNC(=O)[C@H](CC(C)C)NC(=O)[C@H](CC(C)C)NC(=O)[C@H](Cc1ccc(O)cc1)NC(=O)CNC(=O)[C@H](C)NC(=O)[C@H](CO)NC(=O)[C@H](CC(N)=O)NC(=O)[C@H](CC(C)C)NC(=O)[C@@H](NC(=O)[C@H](Cc1c[nH]c2ccccc12)NC(=O)CN)[C@@H](C)O)C(N)=O [Gal(1-13)-Std I] (HELM PEPTIDE1{G.W.T.L.N.S.A.G.Y.L.L.G.P.[dR].P.K.P.Q.Q.[dW].F.[dW].L.L.[am]}$$$$V2.0)
1000 nM | – | – | CC[C@H](C)[C@H](NC(=O)[C@H](C)NC(=O)[C@H](Cc1c[nH]cn1)NC(=O)[C@@H]1CCCN1C(=O)CNC(=O)[C@H](CC(C)C)NC(=O)[C@H](CC(C)C)NC(=O)[C@H](Cc1ccc(O)cc1)NC(=O)CNC(=O)[C@H](C)NC(=O)[C@H](CO)NC(=O)[C@H](CC(N)=O)NC(=O)[C@H](CC(C)C)NC(=O)[C@@H](N)[C@@H](C)O)C(=O)N[C@@H](CC(=O)O)C(=O)N[C@@H](CC(N)=O)C(=O)N[C@@H](Cc1c[nH]cn1)C(=O)N[C@@H](CCCNC(=N)N)C(=O)N[C@@H](CO)C(=O)N[C@@H](Cc1ccccc1)C(=O)N[C@@H](Cc1c[nH]cn1)C(=O)N[C@@H](CC(=O)O)C(=O)N[C@@H](CCCCN)C(=O)N[C@@H](Cc1ccc(O)cc1)C(=O)NCC(=O)N[C@@H](CC(C)C)C(=O)N[C@@H](C)C(N)=O [Galanin (3-29), porcine]
12.3 nM | 3.31 nM | 1.35 nM | CC[C@H](C)[C@H](NC(=O)[C@H](C)NC(=O)[C@H](Cc1cnc[nH]1)NC(=O)[C@@H]1CCCN1C(=O)CNC(=O)[C@H](CC(C)C)NC(=O)[C@H](CC(C)C)NC(=O)[C@H](Cc1ccc(O)cc1)NC(=O)CNC(=O)[C@H](C)NC(=O)[C@H](CO)NC(=O)[C@H](CC(N)=O)NC(=O)[C@H](CC(C)C)NC(=O)[C@@H](NC(=O)[C@H](Cc1c[nH]c2ccccc12)NC(=O)CN)[C@@H](C)O)C(=O)N[C@@H](CC(=O)O)C(=O)N[C@@H](CC(N)=O)C(=O)N[C@@H](Cc1cnc[nH]1)C(N)=O [Galanin rat]
– | 1.23 nM | – | CC[C@H](C)[C@H](NC(=O)[C@H](Cc1ccc(O)cc1)NC(=O)[C@H](Cc1c[nH]cn1)NC(=O)[C@H](CCCNC(=N)N)NC(=O)[C@@H]1CCCN1C(=O)CNC(=O)[C@H](CC(C)C)NC(=O)[C@H](CC(C)C)NC(=O)[C@H](Cc1ccc(O)cc1)NC(=O)CNC(=O)[C@H](C)NC(=O)[C@H](CO)NC(=O)[C@H](CC(N)=O)NC(=O)[C@H](CC(C)C)NC(=O)[C@@H](NC(=O)[C@H](Cc1c[nH]c2ccccc12)NC(=O)CN)[C@@H](C)O)C(=O)N[C@@H](CC(N)=O)C(=O)N[C@@H](CC(C)C)C(=O)N[C@H](C(=O)N[C@H](C(=O)N[C@@H](CCCNC(=N)N)C(=O)N[C@@H](CCC(N)=O)C(=O)N[C@@H](CCCNC(=N)N)C(=O)N[C@@H](Cc1ccc(O)cc1)C(N)=O)[C@@H](C)O)[C@@H](C)CC [M32]
288 nM | 79.4 nM | 3.55 nM | H-GWTLNSAGYLLGPPPALALA-NH2 [M40]
